The target of this experiment is T1, chicken gizzard smooth muscle myosin subfragment-1 chemically crosslinked to cardiac or skeletal actin (Gallus gallus, UniProt P10587).
T1 construct: chicken gizzard smooth muscle myosin subfragment-1; from tissue; host or cells: chicken gizzard
T1 sequence (P02607 2-151): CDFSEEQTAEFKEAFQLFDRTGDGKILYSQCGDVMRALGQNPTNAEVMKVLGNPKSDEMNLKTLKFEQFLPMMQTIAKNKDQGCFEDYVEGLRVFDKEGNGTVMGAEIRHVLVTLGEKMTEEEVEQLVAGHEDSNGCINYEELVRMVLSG
T1 sequence (P10587 84-789): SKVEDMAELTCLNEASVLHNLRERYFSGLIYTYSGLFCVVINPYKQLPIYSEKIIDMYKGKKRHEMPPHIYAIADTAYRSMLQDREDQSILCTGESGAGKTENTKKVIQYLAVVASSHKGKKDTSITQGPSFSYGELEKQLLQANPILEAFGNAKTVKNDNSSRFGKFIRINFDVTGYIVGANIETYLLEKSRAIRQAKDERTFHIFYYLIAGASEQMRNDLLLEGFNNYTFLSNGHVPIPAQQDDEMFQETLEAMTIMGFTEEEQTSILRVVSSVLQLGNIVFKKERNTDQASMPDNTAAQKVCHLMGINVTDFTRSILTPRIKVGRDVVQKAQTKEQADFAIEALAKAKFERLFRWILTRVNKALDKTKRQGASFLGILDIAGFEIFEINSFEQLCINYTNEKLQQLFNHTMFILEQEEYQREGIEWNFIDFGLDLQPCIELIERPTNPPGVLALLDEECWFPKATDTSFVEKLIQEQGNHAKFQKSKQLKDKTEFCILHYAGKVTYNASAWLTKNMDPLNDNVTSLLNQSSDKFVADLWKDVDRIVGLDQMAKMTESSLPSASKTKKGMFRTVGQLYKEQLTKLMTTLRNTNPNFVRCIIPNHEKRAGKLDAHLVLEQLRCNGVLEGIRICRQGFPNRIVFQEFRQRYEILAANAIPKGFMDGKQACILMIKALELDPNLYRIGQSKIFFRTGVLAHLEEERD
Briefly: Smooth muscle myosin ATPase dose response assay (pyruvate kinase/horseradish peroxidase/pyruvate oxidase-coupled, amplex red fluorescence). Type of experiment: biochemical. The conditions noted are these: read-out: IC50 Arithmetic Mean. In a few lines: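 EDC/NHS-crosslinked S1–actin, amount set per prep by rate titration. Buffer: 12 mM K-PIPES pH 7.00 (22° C), 100 mM KCl, 2 mM MgCl2, 0.15 mM ATP, 0.1 mM PEP, 2 mM KPi, 0.1 mM amplex red. Read ex 480/em 615 nm; IC50 = midpoint, 4-param Hill fit.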
`N#Cc1ccccc1CCNc1nc(-c2ccccc2C#N)ccc1C(=O)NCc1cccnc1` [(6-(2-cyanophenyl)-2-{[2-(2-cyanophenyl)ethyl]amino}(3-pyridyl))-N-(3-pyridylmethyl)carboxamide]: the concentration for half-maximal inhibition (IC50) was found to be 0.044 µM.
In the case of `N#Cc1ccccc1-c1ccc(C(=O)NCc2cccnc2)c(NCCc2ccccc2F)n1` [(6-(2-cyanophenyl)-2-{[2-(2-fluorophenyl)ethyl]amino}(3-pyridyl))-N-(3-pyridylmethyl)carboxamide] it was 0.028 µM.
In the case of `N#Cc1ccccc1-c1ccc(C(=O)NCc2cccnc2)c(NCCc2ccccc2O)n1` [(6-(2-cyanophenyl)-2-{[2-(2-hydroxyphenyl)ethyl]amino}(3-pyridyl))-N-(3-pyridylmethyl)carboxamide] it was 0.38 µM.
For the molecule `Cc1ccccc1CCNc1nc(-c2ccccc2C#N)ccc1C(=O)NCc1cccnc1` [(6-(2-cyanophenyl)-2-{[2-(2-methylphenyl)ethyl]amino}(3-pyridyl))-N-(3-pyridylmethyl)carboxamide], the IC50 stood at 0.076 µM.
For the molecule `N#Cc1ccccc1-c1ccc(C(=O)NCc2cccnc2)c(NCC(O)c2cccc(F)c2)n1` (centres unmarked) [(6-(2-cyanophenyl)-2-{[2-(3-fluorophenyl)-2-hydroxyethyl]amino}(3-pyridyl))-N-(3-pyridylmethyl)carboxamide], the concentration for half-maximal inhibition (IC50) came out at 0.339 µM.
In the case of `N#Cc1ccccc1-c1ccc(C(=O)NCc2ncco2)c(NCCc2cccc(F)c2)n1` [(6-(2-cyanophenyl)-2-{[2-(3-fluorophenyl)ethyl]amino}(3-pyridyl))-N-(1,3-oxazol-2-ylmethyl)carboxamide], the IC50 was determined as 0.04 µM.
For `N#Cc1ccccc1-c1ccc(C(=O)NCCc2ccccn2)c(NCCc2cccc(F)c2)n1` [(6-(2-cyanophenyl)-2-{[2-(3-fluorophenyl)ethyl]amino}(3-pyridyl))-N-(2-(2-pyridyl)ethyl)carboxamide], the IC50 was determined as 0.291 µM.
In the case of `N#Cc1ccccc1-c1ccc(C(=O)NCCc2cccnc2)c(NCCc2cccc(F)c2)n1` [(6-(2-cyanophenyl)-2-{[2-(3-fluorophenyl)ethyl]amino}(3-pyridyl))-N-(2-(3-pyridyl)ethyl)carboxamide] it was 0.15 µM; in that of `N#Cc1ccccc1-c1ccc(C(=O)NCCO)c(NCCc2cccc(F)c2)n1` [(6-(2-cyanophenyl)-2-{[2-(3-fluorophenyl)ethyl]amino}(3-pyridyl))-N-(2-hydroxyethyl)carboxamide], 1.08 µM.
For the molecule `COCCNC(=O)c1ccc(-c2ccccc2C#N)nc1NCCc1cccc(F)c1` [(6-(2-cyanophenyl)-2-{[2-(3-fluorophenyl)ethyl]amino}(3-pyridyl))-N-(2-methoxyethyl)carboxamide], the half-inhibitory concentration (IC50) was 0.238 µM.
As for `N#Cc1ccccc1-c1ccc(C(=O)NCCN2CCNCC2)c(NCCc2cccc(F)c2)n1` [(6-(2-cyanophenyl)-2-{[2-(3-fluorophenyl)ethyl]amino}(3-pyridyl))-N-(2-piperazinylethyl)carboxamide], the figure is 16.2 µM; as for `N#Cc1ccccc1-c1ccc(C(=O)NCCc2cnccn2)c(NCCc2cccc(F)c2)n1` [(6-(2-cyanophenyl)-2-{[2-(3-fluorophenyl)ethyl]amino}(3-pyridyl))-N-(2-pyrazin-2-ylethyl)carboxamide], 0.266 µM; as for `N#Cc1ccccc1-c1ccc(C(=O)NCc2ccccn2)c(NCCc2cccc(F)c2)n1` [(6-(2-cyanophenyl)-2-{[2-(3-fluorophenyl)ethyl]amino}(3-pyridyl))-N-(2-pyridylmethyl)carboxamide], 0.029 µM.
As for `N#Cc1ccccc1-c1ccc(C(=O)NCCN2CCC[C@H](NC(=O)OCc3ccccc3)C2=O)c(NCCc2cccc(F)c2)n1` [(6-(2-cyanophenyl)-2-{[2-(3-fluorophenyl)ethyl]amino}(3-pyridyl))-N-(2-{2-oxo-3-[(phenylmethoxy)carbonylamino]piperidyl}ethyl)carboxamide], the figure is 11.8 µM; as for `N#Cc1ccccc1-c1ccc(C(=O)NCCCO)c(NCCc2cccc(F)c2)n1` [(6-(2-cyanophenyl)-2-{[2-(3-fluorophenyl)ethyl]amino}(3-pyridyl))-N-(3-hydroxypropyl)carboxamide], 0.318 µM.
In the case of `COCCCNC(=O)c1ccc(-c2ccccc2C#N)nc1NCCc1cccc(F)c1` [(6-(2-cyanophenyl)-2-{[2-(3-fluorophenyl)ethyl]amino}(3-pyridyl))-N-(3-methoxypropyl)carboxamide] it was 0.396 µM.
As to `N#Cc1ccccc1-c1ccc(C(=O)NCc2cccnc2)c(NCCc2cccc(F)c2)n1` [(6-(2-cyanophenyl)-2-{[2-(3-fluorophenyl)ethyl]amino}(3-pyridyl))-N-(3-pyridylmethyl)carboxamide], the IC50 was found to be 0.024 µM.
As for `N#Cc1ccccc1-c1ccc(C(=O)NCC2CCNCC2)c(NCCc2cccc(F)c2)n1` [(6-(2-cyanophenyl)-2-{[2-(3-fluorophenyl)ethyl]amino}(3-pyridyl))-N-(4-piperidylmethyl)carboxamide], the figure is 0.336 µM.
On to `N#Cc1ccccc1-c1ccc(C(=O)NCC2CC2)c(NCCc2cccc(F)c2)n1` [(6-(2-cyanophenyl)-2-{[2-(3-fluorophenyl)ethyl]amino}(3-pyridyl))-N-(cyclopropylmethyl)carboxamide], for which the IC50 turned out to be 0.136 µM.
In the case of `N#Cc1ccccc1-c1ccc(C(=O)NCc2ccno2)c(NCCc2cccc(F)c2)n1` [(6-(2-cyanophenyl)-2-{[2-(3-fluorophenyl)ethyl]amino}(3-pyridyl))-N-(isoxazol-5-ylmethyl)carboxamide] it was 0.021 µM; in that of `N#Cc1ccccc1-c1ccc(C(=O)NCc2cnccn2)c(NCCc2cccc(F)c2)n1` [(6-(2-cyanophenyl)-2-{[2-(3-fluorophenyl)ethyl]amino}(3-pyridyl))-N-(pyrazin-2-ylmethyl)carboxamide], 0.026 µM.
For the molecule `N#Cc1ccccc1-c1ccc(C(=O)NCc2cc[nH]n2)c(NCCc2cccc(F)c2)n1` [(6-(2-cyanophenyl)-2-{[2-(3-fluorophenyl)ethyl]amino}(3-pyridyl))-N-(pyrazol-3-ylmethyl)carboxamide], the IC50 is 0.015 µM.
In the case of `N#Cc1ccccc1-c1ccc(C(=O)NCC2CCCN2)c(NCCc2cccc(F)c2)n1` (centres unmarked) [(6-(2-cyanophenyl)-2-{[2-(3-fluorophenyl)ethyl]amino}(3-pyridyl))-N-(pyrrolidin-2-ylmethyl)carboxamide] it was 0.439 µM; in that of `N#Cc1ccccc1-c1ccc(C(=O)NCC2CCNC2)c(NCCc2cccc(F)c2)n1` (centres unmarked) [(6-(2-cyanophenyl)-2-{[2-(3-fluorophenyl)ethyl]amino}(3-pyridyl))-N-(pyrrolidin-3-ylmethyl)carboxamide], 0.963 µM; in that of `COC(=O)NCCNC(=O)c1ccc(-c2ccccc2C#N)nc1NCCc1cccc(F)c1` [(6-(2-cyanophenyl)-2-{[2-(3-fluorophenyl)ethyl]amino}(3-pyridyl))-N-[2-(methoxycarbonylamino)ethyl]carboxamide], 1.12 µM.
In the case of `CNCCNC(=O)c1ccc(-c2ccccc2C#N)nc1NCCc1cccc(F)c1` [(6-(2-cyanophenyl)-2-{[2-(3-fluorophenyl)ethyl]amino}(3-pyridyl))-N-[2-(methylamino)ethyl]carboxamide] it was 4.46 µM; in that of `CN1CCN(CCCNC(=O)c2ccc(-c3ccccc3C#N)nc2NCCc2cccc(F)c2)CC1` [(6-(2-cyanophenyl)-2-{[2-(3-fluorophenyl)ethyl]amino}(3-pyridyl))-N-[3-(4-methylpiperazinyl)propyl]carboxamide], 3.06 µM.
For the molecule `N#Cc1ccccc1-c1ccc(C(=O)NCC(CO)CO)c(NCCc2cccc(F)c2)n1` [(6-(2-cyanophenyl)-2-{[2-(3-fluorophenyl)ethyl]amino}(3-pyridyl))-N-[3-hydroxy-2-(hydroxymethyl)propyl]carboxamide], the IC50 amounted to 0.209 µM.
Regarding `Cn1ccc(CNC(=O)c2ccc(-c3ccccc3C#N)nc2NCCc2cccc(F)c2)n1` [(6-(2-cyanophenyl)-2-{[2-(3-fluorophenyl)ethyl]amino}(3-pyridyl))-N-[(1-methylpyrazol-3-yl)methyl]carboxamide], the half-inhibitory concentration (IC50) was found to be 0.032 µM.
Regarding `Cn1nccc1CNC(=O)c1ccc(-c2ccccc2C#N)nc1NCCc1cccc(F)c1` [(6-(2-cyanophenyl)-2-{[2-(3-fluorophenyl)ethyl]amino}(3-pyridyl))-N-[(1-methylpyrazol-5-yl)methyl]carboxamide], the 50% inhibitory concentration (IC50) was found to be 0.031 µM.
For `COc1ncccc1CNC(=O)c1ccc(-c2ccccc2C#N)nc1NCCc1cccc(F)c1` [(6-(2-cyanophenyl)-2-{[2-(3-fluorophenyl)ethyl]amino}(3-pyridyl))-N-[(2-methoxy(3-pyridyl))methyl]carboxamide], the IC50 was found to be 0.087 µM.
As for `Cc1ncccc1CNC(=O)c1ccc(-c2ccccc2C#N)nc1NCCc1cccc(F)c1` [(6-(2-cyanophenyl)-2-{[2-(3-fluorophenyl)ethyl]amino}(3-pyridyl))-N-[(2-methyl(3-pyridyl))methyl]carboxamide], the figure is 0.022 µM; as for `N#Cc1ccccc1-c1ccc(C(=O)NCC2CCCNC2=O)c(NCCc2cccc(F)c2)n1` (centres unmarked) [(6-(2-cyanophenyl)-2-{[2-(3-fluorophenyl)ethyl]amino}(3-pyridyl))-N-[(2-oxo(3-piperidyl))methyl]carboxamide], 0.014 µM; as for `N#Cc1ccccc1-c1ccc(C(=O)NCC2CCNC2=O)c(NCCc2cccc(F)c2)n1` (centres unmarked) [(6-(2-cyanophenyl)-2-{[2-(3-fluorophenyl)ethyl]amino}(3-pyridyl))-N-[(2-oxopyrrolidin-3-yl)methyl]carboxamide], 0.032 µM.
For the molecule `N#Cc1ccccc1-c1ccc(C(=O)NCc2cccnc2CNC(=O)c2ccc(-c3ccccc3C#N)nc2NCCc2cccc(F)c2)c(NCCc2cccc(F)c2)n1` [(6-(2-cyanophenyl)-2-{[2-(3-fluorophenyl)ethyl]amino}(3-pyridyl))-N-[(3-{[(6-(2-cyanophenyl)-2-{[2-(3-fluorophenyl)ethyl]amino}(3-pyridyl))carbonylamino]methyl}(2-pyridyl))methyl]carboxamide], the IC50 amounted to 2.44 µM.

The term IC50 denotes the concentration at which inhibition is half-maximal.
